Where a name gives a salt, the structure may show the parent alone. Each block holds one compound with its values, some of them ahead of it.
Experiments:
[1] = system: aortic rings; settings: cited from earlier work
[2] = system: NO2 levels; settings: compared with vehicle treated animals; cited from earlier work
[3] = system: H2S levels; settings: compared to vehicle treated animals; cited from earlier work
[4] = physchem; format: physicochemical; settings: for solubility: thermodynamic from solid
Method: The hygroscopicity of zofenopril sodium material A was tested using DVS.

[5] = Hygroscopicity by dynamic vapor sorption (DVS); format: physicochemical
Method: Zofenopril calcium was slurried in ACN. Two molar equivalents of HCl were added. The materials were allowed to slurry overnight. […] On DSC this material has an onset at 162° C. This is in contrast to DSC results for zofenopril calcium which has an onset of 250.3° C. […] On the sorption step up to 65% RH, the material gained 1.2% weight. Above this RH, the material gained an additional 36.9% weight. […] Most of the weight was lost on desorption with significant hysteresis.
Nicorandil free base was dissolved in acetone resulting in a clear solution. A molar equivalent of HCl was added stepwise following which there nucleation with rosettes of aciculars and blades that were birefringent. The resulting material was recovered and shown to be nicorandil HCl form A. The XRPD pattern for this sample is shown in FIG. 16. Based on the single crystal structure, nicorandil hydrochloride form A is anhydrous and contains one nicorandil cation and one chloride anion in the asymmetric unit. On the sorption step up to 75% RH, the material gained 0.5% weight. Above that it gained an additional 52% weight. Most of the weight was lost on desoption with significant hysteresis. The material recovered from DVS was shown by XRPD to be form A (FIG. 18). Solubility of nicorandil HCl form A was tested and shown to be >48 mg/mL which was the limit of the test.

[6] = system: human umbilical artery segments; settings: cited from earlier work
[7] = system: portal vein rings; experiment: In-vitro rat portal vein ring relaxation (isometric method); format: cell-based, Wistar rats; set-up: Emax: dose or concentration left out as unconfirmed
Method: The portal vein was recovered from Wistar rats weighing approximately 450 gm, and divided into vein segments. Segments were placed in a bath containing approximately 10 mL of Krebs buffer at pH˜7.4. The vehicle used for treatment was 0.2% DMSO. Portal vein rings were pre-contracted and incubated for 60 min at 32° C. Ring relaxation was measured after 10 minutes of exposure to the test compound(s). Chromakalim served as the positive control for the experiment. Ring relaxation was measured by the isometric method as gram changes. Relaxation of the vein rings in this assay are a function of both KATP channel agonization and NO response. In prior published work, about half of the relaxation response could be attributable to KATP channel agonization and half to a NO-mediated response. Each assay was run in duplicate.
Eight combinations of concentration of zofenopril and nicorandil were tested in the assay. These were 80 and 40 μM nicorandil, 100 and 50 μM zofenopril, 12.5 μM zofenopril+10 μM nicorandil, 12.5 μM zofenopril+20 μM nicorandil, 12.5 μM zofenopril+40 μM nicorandil, and 25 μM zofenopril+40 μM nicorandil.

[8] = following a 5 mg dose; expected value; cited from earlier work
[9] = system: isolated rat hearts; settings: cited from earlier work
[10] = system: arterial rings; settings: 100 μM zofenopril; cited from earlier work

Compound: CC1(C)Oc2ccc(C#N)cc2C(N2CCCC2=O)C1O (stereo not drawn) [Chromakalim, chromakalim]
relaxation of aortic rings [1]: near maximal relaxation

Compound: CCOC(=O)[C@H](CCc1ccccc1)N[C@@H](C)C(=O)N1[C@H](C(=O)O)C[C@@H]2CCC[C@@H]21 [Ramipril, ramipril]
plasma and myocardial tissue NO2 levels [2]: virtually no effect
plasma and myocardial tissue H2S levels [3]: did not elevate

solubility [4]: > 48 mg/mL
DVS additional weight gain above 75% RH ([5]; above 75% RH): 52 % weight
DVS weight gain on the sorption step up to 75% RH ([5]; up to 75% RH): 0.5 % weight
Compound: O=C(NCCO[N+](=O)[O-])c1cccnc1 [nicorandil HCl form A, nicorandil hydrochloride]

Compound: O=C(NCCO[N+](=O)[O-])c1cccnc1 [nicorandil]
relaxation, % of maximum ([6]; 30 μM nicorandil): about 60%
relaxation ([6]; 100 μM nicorandil): maximal relaxation
relaxation response ([7]; 40 μM nicorandil): maximal relaxation response
Cmax [8]: 15 to 16 µM

Compound: C[C@H](CSC(=O)c1ccccc1)C(=O)N1C[C@@H](Sc2ccccc2)C[C@H]1C(=O)O [zofenopril sodium material A, zofenopril sodium]
pH of the solution at the end of the solubility ([4]; pH 10): 10
solubility ([4]; pH 10, water): > 48 mg/mL

Compound: C[C@H](CSC(=O)c1ccccc1)C(=O)N1C[C@@H](Sc2ccccc2)C[C@H]1C(=O)O [zofenopril]
maximal response, relaxation of aortic rings [1]: 89%
pre-ischemic coronary flow or contractile function [9]: little effect
reperfusion end diastolic pressure (EDP) and lactate dehydrogenase (LDH) release ([9]; reversed by glyburide and 5-HD): significantly reduced
reperfusion function ([9]; reversed by glyburide and 5-HD): significantly improved
plasma and myocardial tissue NO2 levels [2]: significantly increased
plasma and myocardial tissue H2S levels [3]: directly elevating plasma and myocardial tissue H2S levels
relaxation, % of the positive control ([7]; 50 μM zofenopril): 60%
relaxation, % of the positive control ([7]; 100 μM zofenopril, positive control chromakalim, 10 min exposure): about 85%
Emax ([7]; Rattus norvegicus, read-out: relaxation, % of the maximum response for zofenopril): ~70%
relaxation response [10]: maximal relaxation response

DVS additional weight gain above 65% RH ([5]; above 65% RH, equilibration timed out at all steps): 36.9 % weight
DVS weight gain on the sorption step up to 65% RH ([5]; up to 65% RH): 1.2 % weight
Compound: zofenopril calcium chloride [Zofenopril calcium chloride form A]

From patent US20200253926A1, “THERAPEUTIC COMBINATIONS” (SUPERSALUS, INC., priority 2019, published 2020)
